The results in this text go back to patent US20120184562A1, “1,6- AND 1,8-NAPHTHYRIDINES” (priority 2011, published 2012).

Experiment [1] addresses T1, Human DYRK1B (Homo sapiens, UniProt Q9Y463).
T1 construct: purchased Invitrogen PR8350B (former PV4649)
In words: DYRK1B Kinase TR-FRET (IMAP-Tb) Assay. It is filed as biochemical. From the text: DYRK1B Kinase TR-FRET (IMAP-Tb) Assay The kinase TR-FRET (IMAP-Tb) assay uses a fluorescence labeled substrate peptide in the kinase reaction. Upon phosphorylation by the kinase, phosphopeptide is produced, which will be detected by the binding solution provided in IMAP TR-FRET binding kit. After the completion of the kinase reaction, the reaction will be stopped by adding the binding solution containing terbium tracer. This tracer is immobilized on the surface of the IMAP beads, which also contain metal ions on the beads that bind to the phospho-groups of the products. Thus the phosphorylated product of the reaction can enter into close proximity to the tracer, producing resonance energy transfer. Due to the long lifetime of terbium (Tb) fluorescence the detection can be run in time resolved mode, which virtually eliminates fluorescence interference from assay components or compounds. The TR-FRET signal measurement from this assay, given as an IC50 measurement, is a measure of a test compound's ability to interfere with the phosphorylation of the peptide substrate, that is it inhibits the phosphorylation of the substrate peptide by DYRK1B, and is thus a measure of the test compound's ability to inhibit the activity of DYRK1B. […] Human DYRK1B: from Invitrogen. Part #PR8350B (former PV4649) • 2. Substrate Peptide: in-house synthesized: RRRFRPASPLRGPPK • 3. IMAP TR-FRET IPP Explorer Kit: from Molecular Devices. Part #R8157 • 4. Kinase Assay Buffer (KAB): 10 mM HEPES pH 7.0, 50 mM NaCl, 5 mM MgCl2, 1 mM DTT, 1 mM NaVO4, 200 μg/mL BSA (0.02%) • 5. Assay Plate: Remp polypropylene clear 384-well microplate. Cat#23490-102 • 6. Detection Plate: Costa black 384-well microplate. Cat #3710 Assay Procedure: This assay was performed as follows: • 1. Transfer 1.5 μL of 20× compound solution to each well of an assay plate. • 2. Add to each well 22.5 μL of KAB Buffer. • 3. Add to each well 3 μL of the solution of DYRK1B and ATP. […] Add to each well 3 μL of the substrate peptide. The assay concentration is 1.0 μM • 5. Incubate the assay plates at 37° C. for 60 minutes. • 6. Add 18 μL of Detection Solution (1:800 diluted Progress bead stock, 1:400 diluted Tb stock, 80% Buffer A, and 20% Buffer B) into each well of detection plates. • 7. Transfer 6 μL of assay solution from the assay plate to the detection plate. • 8. Shake detection plates for 30 minutes. • 9. Read plates in Envision with wavelength set at excitation 340 nm for Tb, emission 490 nm, and […] 520 nm. • 10. Calculation: TR-FRET Signal=(Reading at […]/Reading at 490 nM)×2000000

Experiment [2] deals with T2, Human DYRK1A (Homo sapiens, UniProt Q13627).
T2 construct: purchased Invitrogen PV3997
In words: DYRK1A Kinase TR-FRET (IMAP-Tb) Assay. It is filed as biochemical. The conditions noted are these: TR-FRET (IMAP-Tb); ATP 70 μM; 37° C., 60 minutes; average of multiple runs; read-out: Enzyme IC50 (μM) DYRK1A. From the text: DYRK1A Kinase TR-FRET (IMAP-Tb) Assay
The kinase TR-FRET (IMAP-Tb) assay uses a fluorescence labeled substrate peptide in the kinase reaction. Upon phosphorylation by the kinase, phosphopeptide is produced, which will be detected by the binding solution provided in IMAP TR-FRET binding kit. After the completion of the kinase reaction, the reaction will be stopped by adding the binding solution containing terbium tracer. This tracer is immobilized on the surface of the IMAP beads, which also contain metal ions on the beads that bind to the phospho-groups of the products. Thus the phosphorylated product of the reaction can enter into close proximity to the tracer, producing resonance energy transfer. Due to the long lifetime of terbium (Tb) fluorescence the detection can be run in time resolved mode, which virtually eliminates fluorescence interference from assay components or compounds.
The TR-FRET signal measurement from this assay, given as an IC50 measurement, is a measure of a test compound's ability to interfere with the phosphorylation of the peptide substrate, that is it inhibits the phosphorylation of the substrate peptide by DYRK1A, and is thus a measure of the test compound's ability to inhibit the activity of DYRK1A.
• 1. Human DYRK1A: from Invitrogen. Part #PV3997 • 2. Substrate Peptide: […] • 3. IMAP TR-FRET IPP Explorer Kit: from Molecular Devices. Part #R8157 • 4. Kinase Assay Buffer (KAB): 10 mM HEPES pH 7.0, 50 mM NaCl, 5 mM MgCl2, 1 mM DTT, 1 mM NaVO4, 200 μg/mL BSA (0.02%) • 5. Assay Plate: Remp polypropylene clear 384-well microplate. […] Detection Plate: Costa black 384-well microplate. […] Transfer 1.5 μL of 20× compound solution to each well of an assay plate. • 2. Add to each well 22.5 μL of KAB Buffer. • 3. Add to each well 3 μL of the solution of DYRK1A and ATP. […] Add to each well 3 μL of the substrate peptide. The assay concentration is 1.0 μM • 5. Incubate the assay plates at 37° C. for 60 minutes. • 6. Add 18 μL of Detection Solution (1:800 diluted Progress bead stock, 1:400 diluted Tb stock, 80% Buffer A, and 20% Buffer B) into each well of detection plates. • 7. Transfer 6 μL of assay solution from the assay plate to the detection plate. • 8. Shake detection plates for 30 minutes. • 9. Read plates in Envision with wavelength set at excitation 340 nm for Tb, emission 490 nm, and […].

The test system of experiment [3] is SW620 human colon cancer cells. In words: SW620 Cell Viability Assay. It is filed as cell-based. The note with it: SW-620, 96 h, 4 days incubation, CellTiter-Glo Luminescent Cell Viability Assay, read-out: Cellular EC50 (μM) SW620. On the procedure:
SW620 Cell Viability Assay
1. Cell Plate Preparation: SW620 human colon cancer cells (known to express DYRK1B), obtained from ATCC, were seeded into 96-well plates at 3×10^3 cells/well in 50 μL of media. • Harvested the required number of cells (counts & viability determined by Guava Viacount). • Centrifuge cells to pellet and removed supernant. • Resuspended in growth media (50 μL/well) & pipetted thoroughly to break up clumps. • Setup for ˜100 wells/plate, therefore, VT=5 mL/plate @ […]. 1A. Some cells (S—) were allowed to attach for 24 hrs, serum starved for 48 hrs, and then followed with drug treatments. Test compound solution were prepared in regular corresponding media supplemented with serum. 2. Test Compound Preparation: Test compounds were solubilized in either DMSO or media and prepared at various stock concentrations. • All compounds were incubated at 37° C. for 30 minutes and vortexed. • (5 mM stocks of test compound were prepared for non-soluble compounds)
• The 10 mM test compound stock was diluted to a concentration of 100× the final Cmax concentration. • Then the test compound stock is diluted 50-fold in media and/or second compound for a final Cmax concentration in the test compound plate. • The Cmax in the test compound plate (2% DMSO) is 2-fold higher than the final Cmax in the cell plate (60 uL titrations were 1:3). 4. Viability Assay: This assay was performed as follows: • Transfer 50 μL of test compound solution per well from the test compound plate onto the cell plate prepared in Step #1. • Mix the plate with treated cells by pipetting up and down three times with 200 μL multi-channel pipette. • Incubate the cells in 5% CO2 incubator @ 37° C. for 4 days. • Run the CellTiter-Glo™ Luminescent Cell Viability Assay.
The results of this assay, given as EC50 values, indicate the concentration of test compound that inhibits tumor cell proliferation by 50%.

[4] abbreviates: TR-FRET (IMAP-Tb), ATP 70 μM, 37° C., 60 minutes, average of multiple runs, read-out: Enzyme IC50 (μM) DYRK1B.

Each structure is given as a SMILES string. Where a name gives a salt, the structure may show the parent alone. Read-outs that look alike come from different tables or passages of the source.

T1 sequence (Q9Y463 whole entry): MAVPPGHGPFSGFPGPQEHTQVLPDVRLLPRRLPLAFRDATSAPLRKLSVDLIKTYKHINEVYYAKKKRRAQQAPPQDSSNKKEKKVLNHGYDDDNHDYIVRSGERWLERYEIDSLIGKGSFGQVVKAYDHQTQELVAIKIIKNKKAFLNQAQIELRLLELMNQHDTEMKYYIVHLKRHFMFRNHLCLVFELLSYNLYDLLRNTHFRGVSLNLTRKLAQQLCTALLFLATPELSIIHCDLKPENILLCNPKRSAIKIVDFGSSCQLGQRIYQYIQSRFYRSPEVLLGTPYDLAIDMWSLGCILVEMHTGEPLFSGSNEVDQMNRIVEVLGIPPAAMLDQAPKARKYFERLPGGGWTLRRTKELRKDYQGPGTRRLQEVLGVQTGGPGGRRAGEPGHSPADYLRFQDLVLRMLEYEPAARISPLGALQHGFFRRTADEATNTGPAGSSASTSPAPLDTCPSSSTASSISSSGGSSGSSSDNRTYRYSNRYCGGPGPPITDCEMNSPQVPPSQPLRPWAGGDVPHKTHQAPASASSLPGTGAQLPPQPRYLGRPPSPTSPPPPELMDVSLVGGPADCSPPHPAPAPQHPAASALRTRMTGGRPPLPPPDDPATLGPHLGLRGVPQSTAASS

As to `COC(=O)c1ccc(Cl)c(NC(=O)c2cc3cnc(OC)cc3[nH]c2=O)c1` [Example 30, 4-Chloro-3-[(7-methoxy-2-oxo-1,2-dihydro-[1,6]naphthyridine-3-carbonyl)-amino]-benzoic acid methyl ester], the results for the IC50 in experiment [1] (setting [4]) and in experiment [2] were 0.119 µM and 0.135 µM, respectively. Besides, in experiment [3], the EC50 was above 10 µM.

For `COc1cc2[nH]c(=O)c(C(=O)Nc3cc(C(=O)NCc4ccccc4)ccc3C)cc2cn1` [Example 33, 7-Methoxy-2-oxo-1,2-dihydro-[1,6]naphthyridine-3-carboxylic acid (5-benzylcarbamoyl-2-methyl-phenyl)-amide], the figures for the IC50 in experiment [1] (setting [4]) and in experiment [2] were 0.484 µM and 2.15 µM, respectively. The EC50 in experiment [3] turned out to be 1.47 µM.

`COc1cc2[nH]c(=O)c(C(=O)Nc3cc(C(=O)NCc4cccs4)ccc3C)cc2cn1` [Example 37, 7-Methoxy-2-oxo-1,2-dihydro-[1,6]naphthyridine-3-carboxylic acid {2-methyl-5-[(thiophen-2-ylmethyl)-carbamoyl]-phenyl}-amide]: the IC50 was 0.917 µM in experiment [1] (setting [4]) and 0.588 µM in experiment [2]. The concentration giving a half-maximal response (EC50) in experiment [3] was 0.47 µM.

For `COc1cc2[nH]c(=O)c(C(=O)Nc3cc(C(=O)NCc4ccsc4)ccc3C)cc2cn1` [Example 38, 7-Methoxy-2-oxo-1,2-dihydro-[1,6]naphthyridine-3-carboxylic acid {2-methyl-5-[(thiophen-3-ylmethyl)-carbamoyl]-phenyl}-amide], the IC50 in experiment [1] (setting [4]) came out at 0.424 µM; in experiment [2], 0.266 µM. In addition, in experiment [3], the EC50 is above 10 µM.

As to `COc1cc2[nH]c(=O)c(C(=O)Nc3cc(C(=O)NCc4ccsc4)ccc3Cl)cc2cn1` [Example 43, 7-Methoxy-2-oxo-1,2-dihydro-[1,6]naphthyridine-3-carboxylic acid {2-chloro-5-[(thiophen-3-ylmethyl)-carbamoyl]-phenyl}-amide], the IC50 in experiment [1] (setting [4]) was 0.041 µM; in experiment [2] it was 0.028 µM. For the same compound, the EC50 in experiment [3] was above 10 µM.

With `COc1cc2[nH]c(=O)c(C(=O)Nc3cc(C(=O)NC(CN)c4ccccc4)ccc3Cl)cc2cn1` (stereo not shown) [Example 45, 7-Methoxy-2-oxo-1,2-dihydro-[1,6]naphthyridine-3-carboxylic acid [5-(2-amino-1-phenyl-ethylcarbamoyl)-2-chloro-phenyl]-amide; hydrochloride], the figures for the IC50 in experiment [1] (setting [4]) and in experiment [2] were 0.014 µM and 0.0115 µM, respectively. In addition, the EC50 in experiment [3] is 0.177 µM.

On to `COC(=O)c1ccc(C)c(NC(=O)c2cc3cnc(NCC(O)CO)cc3[nH]c2=O)c1` (stereo not shown) [Example 49, 3-{[7-(2,3-Dihydroxy-propylamino)-2-oxo-1,2-dihydro-[1,6]naphthyridine-3-carbonyl]-amino}-4-methyl-benzoic acid methyl ester; hydrochloride], for which the IC50 in experiment [1] (setting [4]) turned out to be 0.537 µM; in experiment [2] it was 0.3 µM. Besides, in experiment [3], the EC50 is above 10 µM.

`COc1cc2[nH]c(=O)c(C(=O)Nc3cc(C(=O)NC(CN)c4cccc(Cl)c4)ccc3Cl)cc2cn1` (stereo not shown) [Example 51, 7-Methoxy-2-oxo-1,2-dihydro-[1,6]naphthyridine-3-carboxylic acid {5-[2-amino-1-(3-chloro-phenyl)-ethylcarbamoyl]-2-chloro-phenyl}-amide; hydrochloride]: the IC50 in experiment [1] (setting [4]) turned out to be 0.119 µM; in experiment [2], 0.0198 µM. The EC50 in experiment [3] came to 0.373 µM.

Consider `COc1cc2[nH]c(=O)c(C(=O)Nc3cc(C(=O)NC(CCN)c4ccsc4)ccc3Cl)cc2cn1` (stereo not shown) [Example 53, 7-Methoxy-2-oxo-1,2-dihydro-[1,6]naphthyridine-3-carboxylic acid [5-(3-amino-1-thiophen-3-yl-propylcarbamoyl)-2-chloro-phenyl]-amide], for which the IC50 in experiment [1] came out at 0.0138 µM. Also, the EC50 in experiment [3] was determined as 0.0524 µM.

On to `COc1cc2[nH]c(=O)c(C(=O)Nc3cc(C(=O)NC(CN)c4ccccc4)ccc3C)cc2cn1` (stereo not shown) [Example 55, 7-Methoxy-2-oxo-1,2-dihydro-[1,6]naphthyridine-3-carboxylic acid [5-(2-amino-1-phenyl-ethylcarbamoyl)-2-methyl-phenyl]-amide; hydrochloride], for which the figures for the IC50 in experiment [1] (setting [4]) and in experiment [2] were 0.0915 µM and 0.0506 µM, respectively. In experiment [3], the EC50 was found to be 0.68 µM.

In the case of `COc1cc2[nH]c(=O)c(C(=O)Nc3cc(C(=O)NC(CN)c4ccsc4)ccc3Cl)cc2cn1` (stereo not shown) [Example 71, 7-Methoxy-2-oxo-1,2-dihydro-[1,6]naphthyridine-3-carboxylic acid [5-(2-amino-1-thiophen-3-yl-ethylcarbamoyl)-2-chloro-phenyl]-amide; hydrochloride], the half-inhibitory concentration (IC50) in experiment [1] was below 0.0046 µM. Besides, in experiment [3], the EC50 worked out at 0.137 µM.
